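Cultured in 96-well plates, cells were exposed to test compound for 48 hours across five concentrations. TGI marks complete inhibition of growth.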
What was measured:
Assay in all cases: NCI tumour cell line growth inhibition, 48 h
NCI-H460 lung = system: NCI-H460 lung
A549 NSCLC = system: A549 NSCLC
OVCAR-4 ovarian = system: OVCAR-4 ovarian
UACC-257 melanoma = system: UACC-257 melanoma
MCF7 breast = system: MCF7 breast
SF-539 CNS = system: SF-539 CNS
HOP-92 NSCLC = system: HOP-92 NSCLC
DU-145 prostate = system: DU-145 prostate
T-47D breast = system: T-47D breast
MOLT-4 leukemia = system: MOLT-4 leukemia
OVCAR-3 ovarian = system: OVCAR-3 ovarian
A498 renal = system: A498 renal
U251 CNS = system: U251 CNS
SN12C renal = system: SN12C renal
SK-MEL-2 melanoma = system: SK-MEL-2 melanoma
ACHN renal = system: ACHN renal
OVCAR-5 ovarian = system: OVCAR-5 ovarian
NCI-H23 lung = system: NCI-H23 lung
MDA-N = system: MDA-N
HOP-62 NSCLC = system: HOP-62 NSCLC
LOX IMVI melanoma = system: LOX IMVI melanoma
HCT-15 colon = system: HCT-15 colon
KM12 colon = system: KM12 colon
MDA-MB-435 = system: MDA-MB-435
HT29 colon = system: HT29 colon
EKVX NSCLC = system: EKVX NSCLC
786-0 renal = system: 786-0 renal
CCRF-CEM leukemia = system: CCRF-CEM leukemia
NCI/ADR-RES ovarian = system: NCI/ADR-RES ovarian
HCT-116 colon = system: HCT-116 colon
OVCAR-8 ovarian = system: OVCAR-8 ovarian
SK-MEL-5 melanoma = system: SK-MEL-5 melanoma
SK-OV-3 ovarian = system: SK-OV-3 ovarian
M14 melanoma = system: M14 melanoma
TK-10 renal = system: TK-10 renal
UO-31 renal = system: UO-31 renal
UACC-62 melanoma = system: UACC-62 melanoma
IGROV1 ovarian = system: IGROV1 ovarian
RXF 393 renal = system: RXF 393 renal
CAKI-1 renal = system: CAKI-1 renal
COLO 205 colon = system: COLO 205 colon
SR leukemia = system: SR leukemia
SNB-19 CNS = system: SNB-19 CNS
BT-549 breast = system: BT-549 breast
SK-MEL-28 melanoma = system: SK-MEL-28 melanoma
HS 578T breast = system: HS 578T breast
MDA-MB-231 breast = system: MDA-MB-231 breast
SF-268 CNS = system: SF-268 CNS
NCI-H522 lung = system: NCI-H522 lung
SF-295 CNS = system: SF-295 CNS
HL-60(TB) leukemia = system: HL-60(TB) leukemia
SW-620 colon = system: SW-620 colon
K-562 leukemia = system: K-562 leukemia
NCI-H226 lung = system: NCI-H226 lung
HCC-2998 colon = system: HCC-2998 colon
PC-3 prostate = system: PC-3 prostate

Measured: TGI

Nc1ccc2c(c1)S(=O)(=O)c1cc(O)ccc1O2
> 100 µM: NCI-H460 lung | A549 NSCLC | OVCAR-4 ovarian | UACC-257 melanoma | MCF7 breast | SF-539 CNS | HOP-92 NSCLC | DU-145 prostate | T-47D breast | MOLT-4 leukemia | OVCAR-3 ovarian | A498 renal | U251 CNS | SN12C renal | SK-MEL-2 melanoma | ACHN renal | OVCAR-5 ovarian | NCI-H23 lung | MDA-N | HOP-62 NSCLC | LOX IMVI melanoma | HCT-15 colon | KM12 colon | MDA-MB-435 | HT29 colon | EKVX NSCLC | 786-0 renal | CCRF-CEM leukemia | NCI/ADR-RES ovarian | HCT-116 colon | OVCAR-8 ovarian | SK-MEL-5 melanoma | SK-OV-3 ovarian | M14 melanoma | TK-10 renal | UO-31 renal | UACC-62 melanoma | IGROV1 ovarian | RXF 393 renal | CAKI-1 renal | COLO 205 colon | SR leukemia | SNB-19 CNS | BT-549 breast | SK-MEL-28 melanoma | HS 578T breast | MDA-MB-231 breast | SF-268 CNS | NCI-H522 lung | SF-295 CNS | HL-60(TB) leukemia | SW-620 colon | K-562 leukemia | NCI-H226 lung | HCC-2998 colon | PC-3 prostate
